{"source": "patent US7767664B2", "about": "“Plant growth regulation” (Bayer CropScience AG, priority 2004, dated 2010)", "key": {"[1]": {"test_system": "maize (Zea mays, variety “LORENZO”)", "test": "Root growth assay, maize seed treatment", "type": "in vivo", "settings": "Root Growth of 100 is set as the standard, wet root weight 16 days post treatment", "description": "Plant roots are a highly proliferative tissue that allows an easy accessible, cheap and short term screening method for plant growth regulators. […] By using this root assay one is enabled to determine the effect of a seed treatment to root growth and/or germination and/or changes in habitat of germinated plants in order to identify the possible use as a yield enhancer. Two seeds of wheat (Triticum aestivum, variety “TRISO”) or 1 seed of maize (Zea mays, variety “LORENZO”) per hole in a plastic tray which contains an architecture of 8×13 holes were placed on compost soil covered with sand. […] Six replicates in a row of each compound and concentration were done. The outer rim of the above defined plastic tray was untreated to avoid false negative effects and the middle row (No. 7) was used as untreated control. The treated seeds were allowed to dry for approx. 4 hours and subsequently covered with sand and watered. The trays were stored in climate chambers with 14 hours lighting at a temperature of 24° C. (±2) at daytime and 16° C. (±2) at night and relative humidity (rH) of 60% and daily watered. Assessments were done 16 (±2) days post treatment by counting the germinated plants and assessing the phytotoxicity symptoms and percentage. In addition, the roots were washed out and the shoots were cut directly above the seed and the wet roots were placed on dry paper towels for approximately 30 minutes and weighted afterwards. This procedure provides a similar grade of moisture to the roots so that a comparison of the weights is possible."}, "[2]": {"test_system": "wheat (Triticum aestivum, variety “TRISO”)", "test": "Root growth assay, wheat seed treatment", "type": "in vivo", "settings": "Root Growth of 100 is set as the standard, wet root weight 16 days post treatment", "description": "Plant roots are a highly proliferative tissue that allows an easy accessible, cheap and short term screening method for plant growth regulators. The results obtained can easily be transferred to the overall effects on a plant of plant growth regulators identified by such a system. By using this root assay one is enabled to determine the effect of a seed treatment to root growth and/or germination and/or changes in habitat of germinated plants in order to identify the possible use as a yield enhancer. Two seeds of wheat (Triticum aestivum, variety “TRISO”) or 1 seed of maize (Zea mays, variety “LORENZO”) per hole in a plastic tray which contains an architecture of 8×13 holes were placed on compost soil covered with sand. These seeds were treated with 100 μl/hole, which creates an application volume of approx. 1200 l/ha, of a compound solution at active ingredient rates equivalent to 100, 10 and 1 g a.i./ha of each compound using an robotic application system (Lizzy Spray Robotics). Six replicates in a row of each compound and concentration were done. The outer rim of the above defined plastic tray was untreated to avoid false negative effects and the middle row (No. 7) was used as untreated control. The treated seeds were allowed to dry for approx. 4 hours and subsequently covered with sand and watered. The trays were stored in climate chambers with 14 hours lighting at a temperature of 24° C. (±2) at daytime and 16° C. (±2) at night and relative humidity (rH) of 60% and daily watered. Assessments were done 16 (±2) days post treatment by counting the germinated plants and assessing the phytotoxicity symptoms and percentage. In addition, the roots were washed out and the shoots were cut directly above the seed and the wet roots were placed on dry paper towels for approximately 30 minutes and weighted afterwards. This procedure provides a similar grade of moisture to the roots so that a comparison of the weights is possible.\nThe effects observed concerning Root Growth given in column 2 (Root Growth of “100” is set as the standard) are directed to concentrations that are equivalent to 100, 10, 1 g a.i./ha, each."}}}
{"smiles": "O=C1CCC(=O)c2ccccc2N1", "note": "[Compound 3.1]", "values": [{"measurement": "Root Growth", "setting": "[1]; 1 g a.i./ha", "value": 86}, {"measurement": "Root Growth", "setting": "[1]; 10 g a.i./ha", "value": 150}, {"measurement": "Root Growth", "setting": "[1]; 100 g a.i./ha", "value": 86}, {"measurement": "Root Growth", "setting": "[2]; 1 g a.i./ha", "value": 98}, {"measurement": "Root Growth", "setting": "[2]; 10 g a.i./ha", "value": 125}, {"measurement": "Root Growth", "setting": "[2]; 100 g a.i./ha", "value": 135}]}
{"smiles": "COc1cc2c(cc1OC)C(=O)CCC(=O)N2", "note": "[Compound 3.2, 7,8-Dimethoxy-1H-benzazepine-2,5 (3H, 4H)-dione]", "values": [{"measurement": "Root Growth", "setting": "[1]; 1 g a.i./ha", "value": 96}, {"measurement": "Root Growth", "setting": "[1]; 10 g a.i./ha", "value": 89}, {"measurement": "Root Growth", "setting": "[1]; 100 g a.i./ha", "value": 123}, {"measurement": "Root Growth", "setting": "[2]; 1 g a.i./ha", "value": 133}, {"measurement": "Root Growth", "setting": "[2]; 10 g a.i./ha", "value": 131}, {"measurement": "Root Growth", "setting": "[2]; 100 g a.i./ha", "value": 98}]}
{"smiles": "O=C1CCC(=O)c2cc(Cl)ccc2N1", "note": "[Compound 3.4]", "values": [{"measurement": "Root Growth", "setting": "[1]; 1 g a.i./ha", "value": 85}, {"measurement": "Root Growth", "setting": "[1]; 10 g a.i./ha", "value": 121}, {"measurement": "Root Growth", "setting": "[1]; 100 g a.i./ha", "value": 144}, {"measurement": "Root Growth", "setting": "[2]; 1 g a.i./ha", "value": 125}, {"measurement": "Root Growth", "setting": "[2]; 10 g a.i./ha", "value": 126}, {"measurement": "Root Growth", "setting": "[2]; 100 g a.i./ha", "value": 195}]}
{"smiles": "O=C1CCC(=NNc2cc(Cl)cc(Cl)c2)c2cc(Br)ccc2N1", "note": "[Compound 4.1]", "values": [{"measurement": "Root Growth", "setting": "[1]; 1 g a.i./ha", "value": 131}, {"measurement": "Root Growth", "setting": "[1]; 10 g a.i./ha", "value": 102}, {"measurement": "Root Growth", "setting": "[1]; 100 g a.i./ha", "value": 136}]}
{"smiles": "CCNC(=S)NN=C1CCC(=O)Nc2cc(OC)c(OC)cc21", "note": "[Compound 4.5]", "values": [{"measurement": "Root Growth", "setting": "[2]; 1 g a.i./ha", "value": 149}, {"measurement": "Root Growth", "setting": "[2]; 10 g a.i./ha", "value": 106}, {"measurement": "Root Growth", "setting": "[2]; 100 g a.i./ha", "value": 79}]}
